Values after ≈ are worked out from the molar mass of the structure shown. Values joined by “and” are separate entries in the source; they are usually repeats but may differ in a detail not shown here. Identical values can stand only once.
Key:
[1] = Tertiary butyl alcohol-water solubility trials (visual); type: physicochemical
Procedure: Before initiating solvent based Lyophilization trials, a detail assessment of metolazone solubility in Water+TBA (Tertiary butyl alcohol) was carried out to identify optimum ratio of TBA:Water.

[2] = Saturation solubility of metolazone in TBA:water ratios; type: physicochemical; conditions: for solubility: aqueous with cosolvent or surfactant or cyclodextrin, thermodynamic from solid
Procedure: Saturation solubility study of metolazone was conducted in different water to tertiary butyl alcohol ratios ranging from 20-40% of TBA and 80-60% water. The study was conducted in triplicate.

[3] = Diluent selection study: solubility of metolazone in diluent mixtures; type: physicochemical
Procedure: The diluent selection study was conducted to select the best diluent combination for metolazone. The following components were evaluated in combination with phosphate buffer to check the solubility of metolazone and to observe the solution clarity.
Procedure for Example no ITT-1 to 111-5: An excess amount of drug substance PSD (particle size distribution) 10 micron (60 mg) was added to the 20 mL diluent mixtures specified in Ex. III-1 to II-5 so that the theoretical concentration was 3 mg/mL. After drug addition, these samples were sonicated up to 4 hr using a sonicator at room temperature. Solution clarity and quantitative solubility were observed.

[4] = 25° C.; cited from earlier work

For `Cc1ccccc1N1C(=O)c2cc(S(N)(=O)=O)c(Cl)cc2NC1C` (centres unmarked) [Metolazone, 7-chloro-1,2,3,4-tetrahydro-2-methyl-3-(2-methylphenyl)-4-oxo-6-quinazoline sulfonamide], the Observations ([1]; Trial 1: WFI, 5.04 mg metolazone, Q.S. to 10 mL) was “Insoluble”, the Observations ([1]; Trial 2: 20% TBA, 10.08 mg metolazone, Q.S. to 20 mL) was “opalescent” and the Observations ([1]; Trial 3: 30% TBA, 15.12 mg metolazone, Q.S. to 20 mL) was “clear”. For the same compound, the Observations ([1]; Trial 4: 40% TBA, 30.24 mg metolazone, Q.S. to 20 mL) was “clear”, the Observations ([1]; Trial 5: 50% TBA, 30.24 mg metolazone, Q.S. to 20 mL) was “clear” and the Observations ([1]; Trial 6: 60% TBA, 30.24 mg metolazone, Q.S. to 20 mL) was “clear”. The Observations ([1]; Trial 7: 30% TBA, 20.16 mg metolazone, Q.S. to 20 mL) was “clear”, the “Solubility of each trial” value ([2]; 028A: 20% Tertiary butyl alcohol and 80% water mixture [20:80]) was 289 µg/mL and 281 µg/mL and the “Solubility of each trial” value ([2]; 028B: 30% Tertiary butyl alcohol and 70% water mixture [30:70]) was 948 µg/mL and 1044 µg/mL. For the same compound, the “Solubility of each trial” value ([2]; 028C: 40% Tertiary butyl alcohol and 60% water mixture [40:60]) was 2122 µg/mL and 2025 µg/mL, the “slope of metolazone solubility versus TBA fraction in solvent” value ([2]; FIG. 4) was 0.0913 and the solubility ([2]; tertiary butyl alcohol/water mixture, 028A: 20% Tertiary butyl alcohol and 80% water mixture [20:80], read-out: Average solubility) was 279 µg/mL. For the same compound, the solubility ([2]; tertiary butyl alcohol/water mixture, 028A: 20% Tertiary butyl alcohol and 80% water mixture [20:80], read-out: Solubility of each trial) was 267 µg/mL, the solubility ([2]; tertiary butyl alcohol/water mixture, 028B: 30% Tertiary butyl alcohol and 70% water mixture [30:70], read-out: Average solubility) was 1010 µg/mL and the solubility ([2]; tertiary butyl alcohol/water mixture, 028B: 30% Tertiary butyl alcohol and 70% water mixture [30:70], read-out: Solubility of each trial) was 1050 µg/mL. The solubility ([2]; tertiary butyl alcohol/water mixture, 028C: 40% Tertiary butyl alcohol and 60% water mixture [40:60], read-out: Average solubility) was 2110 µg/mL, the solubility ([2]; tertiary butyl alcohol/water mixture, 028C: 40% Tertiary butyl alcohol and 60% water mixture [40:60], read-out: Solubility of each trial) was 2170 µg/mL and the solubility ([2]; tertiary butyl alcohol/water mixtures, TBA:water in the ratio of 30:70 to 40:60, read-out: solubility in solvent (TBA:water)) was > 1000 µg/mL. For the same compound, the solubility ([3]; 40% PEG in buffer, aqueous with cosolvent or surfactant or cyclodextrin, thermodynamic from solid, 40% PEG in all tested buffers, API with particle size D90<10 microns, read-out: solubility) was > 1200 µg/mL, the solubility ([3]; 40% PEG-400 and 0.4% Kolliphor HS-15 in Tris buffer, pH 7.5, aqueous with cosolvent or surfactant or cyclodextrin, thermodynamic from solid, Ex: III-4, 031D: 40% PEG-400 + Kolliphor HS-15 0.4% + Tris buffer pH 7.5, read-out: Solubility) was 2310 µg/mL and the solubility ([3]; 40% PEG-400 and 0.4% Kolliphor HS-15 in phosphate buffer, pH 7.5, aqueous with cosolvent or surfactant or cyclodextrin, thermodynamic from solid, Ex: III-3, 031C: 40% PEG-400 + Kolliphor HS-15 0.4% + Phosphate buffer pH 7.5, read-out: Solubility) was 2160 µg/mL. For the same compound, the solubility ([3]; 40% PEG-400 in Tris buffer, pH 7.5, aqueous with cosolvent or surfactant or cyclodextrin, thermodynamic from solid, Ex: III-2, 031B: 40% PEG-400 + Tris buffer pH 7.5, read-out: Solubility) was 1280 µg/mL, the solubility ([3]; 40% PEG-400 in phosphate buffer, pH 7.5, aqueous with cosolvent or surfactant or cyclodextrin, thermodynamic from solid, Ex: III-1, 031A: 40% PEG-400 + Phosphate buffer pH 7.5, API PSD 10 micron, sonicated up to 4 hr, room temperature, read-out: Solubility) was 1800 µg/mL and the “solubility” value ([3]; Ex: III-1, 031A: 40% PEG-400 + Phosphate buffer pH 7.5, API PSD 10 micron, sonicated up to 4 hr, room temperature) was 1862 µg/mL. The solubility ([3]; tertiary butyl alcohol/water for injection mixture, aqueous with cosolvent or surfactant or cyclodextrin, thermodynamic from solid, Ex: III-5, 031E: 50% Tertiary butyl alcohol and 50% Water for injection, read-out: Solubility) was 3120 µg/mL and the solubility in ethanol [4] was 9000 µg/mL (≈ 24.6 mM).

— patent US20250032417A1, “LYOPHILIZED METOLAZONE FORMULATION FOR PARENTERAL ADMINISTRATION” (Hyloris Developments SA, priority 2023, published 2025)
